Experiments:
[1] = test system: GLXMAW (Soybean, Williams); assay: Postemergence herbicidal evaluation; assay type: in vivo, Glycine max, (L.) Merr. cv Williams; details: postemergence
Method in brief: (§1)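 Young plants, roughly two weeks from seeding, receive the active ingredient as a sprayed dispersion (acetone/water 50/50, 0.5% TWEEN 20) at 40 psi. Doses span about 0.0156 to 0.500 kg/ha. A visual score from 0 to 9 compares treated with control plants four to five weeks on.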

[2] = test system: ECHCG (Barnyardgrass); assay: Preemergence herbicidal evaluation; assay type: in vivo, Echinochloa crus-galli; details: rated 4-5 weeks after treatment
Method in brief: (§2)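 In this greenhouse assay, monocot and dicot seeds are planted in soil and treated prior to emergence with an aqueous acetone spray (about 0.0156-0.500 kg/ha). Plants are assessed visually against control on a 0-9 scale after 4-5 weeks.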

[3] = test system: ABUTH (Velvetleaf); assay: Postemergence herbicidal evaluation; assay type: in vivo, Abutilon theophrasti; details: postemergence
Method in brief: as §1

[4] = test system: CASOB (Sicklepod); assay: Preemergence herbicidal evaluation; assay type: in vivo, Cassia obtusifolia; details: rated 4-5 weeks after treatment
Method in brief: as §2

[5] = test system: CHEAL (Lambsquarters, Common); assay: Preemergence herbicidal evaluation; assay type: in vivo, Chenopodium album; details: rated 4-5 weeks after treatment
Method in brief: as §2

[6] = test system: TRZAWR (Wheat, Winter, cv Riband); assay: Postemergence herbicidal evaluation; assay type: in vivo, Triticum aestivum; details: postemergence
Method in brief: as §1

[7] = test system: ECHCG (Barnyardgrass); assay: Postemergence herbicidal evaluation; assay type: in vivo, Echinochloa crus-galli; details: postemergence
Method in brief: as §1

[8] = test system: AMBEL (Ragweed, Common); assay: Postemergence herbicidal evaluation; assay type: in vivo, Ambrosia artemisifolia; details: postemergence
Method in brief: as §1

[9] = test system: IPOHE (Morningglory, Ivyleaf); assay: Preemergence herbicidal evaluation; assay type: in vivo, Ipomoea hederacea; details: rated 4-5 weeks after treatment
Method in brief: as §2

[10] = test system: IPOHE (Morningglory, Ivyleaf); assay: Postemergence herbicidal evaluation; assay type: in vivo, Ipomoea hederacea; details: postemergence
Method in brief: as §1

[11] = test system: GALAP (Galium); assay: Preemergence herbicidal evaluation; assay type: in vivo, Galium aparine; details: rated 4-5 weeks after treatment
Method in brief: as §2

[12] = test system: ZEAMX (Corn, Field); assay: Preemergence herbicidal evaluation; assay type: in vivo, Zea mays; details: rated 4-5 weeks after treatment
Method in brief: as §2

[13] = test system: SETVI (Foxtail, Green); assay: Postemergence herbicidal evaluation; assay type: in vivo, Setaria viridis; details: postemergence
Method in brief: as §1

CN1C(=O)C(CC(=O)NO)SC1=Nc1cc(-n2c(=O)cc(C(F)(F)F)n(C)c2=O)c(F)cc1Cl (centres unmarked) [Compound 162, 2-{{2-Chloro-5-[3,6-dihydro-3-methyl-2,6-dioxo-4-(trifluoromethyl)-1(2H)-pyrimidinyl]-4-fluorophenyl}imino}-3-methyl-4-oxo-5-thiazolidineacetohydroxamic acid]
6.5: herbicidal rating GLXMAW ([1]; rate 0.0313 kg/ha)
3.0: Preemergence herbicidal rating GALAP ([11]; 0.1250 kg/ha) | Preemergence herbicidal rating GALAP ([11]; 0.2500 kg/ha) | herbicidal rating SETVI ([13]; rate 0.0313 kg/ha)
4.0: Preemergence herbicidal rating ECHCG ([2]; 0.0313 kg/ha) | Preemergence herbicidal rating CASOB ([4]; 0.2500 kg/ha) | Preemergence herbicidal rating IPOHE ([9]; 0.0625 kg/ha) | herbicidal rating SETVI ([13]; rate 0.0625 kg/ha)
8.0: Preemergence herbicidal rating ECHCG ([2]; 0.0625 kg/ha)
0.0: Preemergence herbicidal rating CASOB ([4]; 0.0156 kg/ha) | Preemergence herbicidal rating CASOB ([4]; 0.0625 kg/ha) | Preemergence herbicidal rating CASOB ([4]; 0.1250 kg/ha) | herbicidal rating ECHCG ([7]; rate 0.0156 kg/ha) | herbicidal rating ECHCG ([7]; rate 0.0313 kg/ha) | herbicidal rating ECHCG ([7]; rate 0.0625 kg/ha) | Preemergence herbicidal rating IPOHE ([9]; 0.0156 kg/ha) | Preemergence herbicidal rating IPOHE ([9]; 0.0313 kg/ha) | Preemergence herbicidal rating GALAP ([11]; 0.0156 kg/ha) | Preemergence herbicidal rating GALAP ([11]; 0.0313 kg/ha) | Preemergence herbicidal rating GALAP ([11]; 0.0625 kg/ha) | herbicidal rating SETVI ([13]; rate 0.0156 kg/ha)
6.0: herbicidal rating GLXMAW ([1]; rate 0.0156 kg/ha) | Preemergence herbicidal rating ZEAMX ([12]; 0.0156 kg/ha)
1.0: Preemergence herbicidal rating ECHCG ([2]; 0.0156 kg/ha)
3.5: herbicidal rating TRZAWR ([6]; rate 0.0156 kg/ha) | herbicidal rating TRZAWR ([6]; rate 0.0313 kg/ha) | herbicidal rating TRZAWR ([6]; rate 0.0625 kg/ha)
9.0: Preemergence herbicidal rating ECHCG ([2]; 0.1250 kg/ha) | Preemergence herbicidal rating ECHCG ([2]; 0.2500 kg/ha) | herbicidal rating ABUTH ([3]; rate 0.0156 kg/ha) | herbicidal rating ABUTH ([3]; rate 0.0313 kg/ha) | herbicidal rating ABUTH ([3]; rate 0.0625 kg/ha) | Preemergence herbicidal rating CHEAL ([5]; 0.0156 kg/ha) | Preemergence herbicidal rating CHEAL ([5]; 0.0313 kg/ha) | Preemergence herbicidal rating CHEAL ([5]; 0.0625 kg/ha) | Preemergence herbicidal rating CHEAL ([5]; 0.1250 kg/ha) | Preemergence herbicidal rating CHEAL ([5]; 0.2500 kg/ha) | herbicidal rating AMBEL ([8]; rate 0.0156 kg/ha) | herbicidal rating AMBEL ([8]; rate 0.0313 kg/ha) | herbicidal rating AMBEL ([8]; rate 0.0625 kg/ha) | Preemergence herbicidal rating IPOHE ([9]; 0.1250 kg/ha) | Preemergence herbicidal rating IPOHE ([9]; 0.2500 kg/ha) | herbicidal rating IPOHE ([10]; rate 0.0156 kg/ha) | herbicidal rating IPOHE ([10]; rate 0.0313 kg/ha) | herbicidal rating IPOHE ([10]; rate 0.0625 kg/ha) | Preemergence herbicidal rating ZEAMX ([12]; 0.0625 kg/ha) | Preemergence herbicidal rating ZEAMX ([12]; 0.1250 kg/ha) | Preemergence herbicidal rating ZEAMX ([12]; 0.2500 kg/ha)
8.5: herbicidal rating GLXMAW ([1]; rate 0.0625 kg/ha)
7.0: Preemergence herbicidal rating ZEAMX ([12]; 0.0313 kg/ha)
